From patent US20260102359A1, “COMBINATION TREATMENT OF DERMAL AND TRANSDERMAL FIBROTIC DISEASES, DISORDERS AND ASSOCIATED PAIN AND INFLAMMATION” (ERESINA, LLC, priority 2022, published 2026)
Where a name gives a salt, the structure may show the parent alone.

System: hDMFa myofibroblast cells
Test: Myofibroblast cytotoxicity, MTS cell viability assay
[1] = serum-free media with inhibitor 8-12 hours, MTS cell viability, inhibition normalized as percentage of negative control
[2] = serum-free media with inhibitor 8-12 hours, MTS viability normalized to negative control
[3] = 8-12 hours in serum-free inhibitor media, […]

Cc1ccc([C@@H]2O[C@H](CO)[C@@H](O)[C@H](O)[C@H]2O)cc1Cc1ccc(-c2ccc(F)cc2)s1 [Cmpd 208, Canagliflozin]
Compound Myofibroblast Cytotoxicity Activity [1]: +++++

Sodium Aescinate [Cmpd 869]
Compound Myofibroblast Cytotoxicity Activity [2]: +++++

CCCCCCCCCCCCCCCC[N+](C)(C)C.[Br-] [Cmpd 242, Cetrimonium Bromide (CTAB)]
Compound Myofibroblast Cytotoxicity Activity [1]: +++++

O=C1[C@H]2CCCC[C@H]2C(=O)N1CCCCN1CCN(c2nsc3ccccc23)CC1 [Cmpd 772, Perospirone hydrochloride]
Compound Myofibroblast Cytotoxicity Activity [3]: +++++

CN(C)CCC=C1c2ccccc2C(C)(C)c2ccccc21 [Cmpd 647, Melitracen hydrochloride]
Compound Myofibroblast Cytotoxicity Activity [3]: +++++

Cc1ccc(Sc2ccccc2N2CCNCC2)c(C)c1 [Cmpd 1011, Vortioxetine]
Compound Myofibroblast Cytotoxicity Activity [2]: +++++

CC1(C)CC[C@]2(C(=O)O)CC[C@]3(C)C(=CC[C@@H]4[C@@]5(C)CC[C@H](O)C(C)(C)[C@@H]5CC[C@]43C)[C@@H]2C1 [Cmpd 732, Oleanolic acid]
Compound Myofibroblast Cytotoxicity Activity [3]: +++++
